Source: ChEMBL document CHEMBL1201862, “PubChem BioAssay data set” (2004)
Several values for one entry are separate records, joined by “and”; a condition that tells them apart may be missing. Identical values can stand only once.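 Test compounds were applied to cells in 96-well plates for 48 hours at 5 doses. Abbreviation: GI50, concentration required for 50% inhibition of growth.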 Activity calls are given as the source filed them. No stated cut-off is given here; in the data, active = GI50 up to about 1.1 µM and inactive = higher.

Experiments:
Experiment in all cases: DTP human tumour cell line panel, 48 h
HL-60 = system: HL-60
MCF7 = system: MCF7
SK-MEL-2 = system: SK-MEL-2
SK-OV-3 = system: SK-OV-3
SNB-19 = system: SNB-19
786-0 = system: 786-0
A498 = system: A498
A549 = system: A549
ACHN = system: ACHN
CAKI-1 = system: CAKI-1
CCRF-CEM = system: CCRF-CEM
COLO 205 = system: COLO 205
DU-145 = system: DU-145
HCC 2998 = system: HCC 2998
HCT-116 = system: HCT-116
HCT-15 = system: HCT-15
HOP-62 = system: HOP-62
HOP-92 = system: HOP-92
HT-29 = system: HT-29
IGROV-1 = system: IGROV-1
K562 = system: K562
KM12 = system: KM12
LOX IMVI = system: LOX IMVI
M14 = system: M14
MDA-MB-231 = system: MDA-MB-231
MDA-MB-435 = system: MDA-MB-435
MDA-N = system: MDA-N
MOLT-4 = system: MOLT-4
Malme-3M = system: Malme-3M
NCI-H226 = system: NCI-H226
NCI-H23 = system: NCI-H23
NCI-H460 = system: NCI-H460
NCI-H522 = system: NCI-H522
NCI/ADR-RES = system: NCI/ADR-RES
OVCAR-3 = system: OVCAR-3
OVCAR-4 = system: OVCAR-4
OVCAR-5 = system: OVCAR-5
OVCAR-8 = system: OVCAR-8
PC-3 = system: PC-3
RXF 393 = system: RXF 393
SF-268 = system: SF-268
SF-295 = system: SF-295
SF-539 = system: SF-539
SK-MEL-28 = system: SK-MEL-28
SK-MEL-5 = system: SK-MEL-5
SN12C = system: SN12C
SNB-75 = system: SNB-75
SR = system: SR
SW-620 = system: SW-620
T47D = system: T47D
TK-10 = system: TK-10
U-251 = system: U-251
UACC-257 = system: UACC-257
UACC-62 = system: UACC-62
UO-31 = system: UO-31

## CN1C2CC(C#N)C1C=CC2=O (centres undefined)
HL-60
  GI50: 18.9 µM (inactive) and 34.1 µM (inactive)
MCF7
  GI50: 33.3 µM (inactive) and 57.8 µM (inactive)
SK-MEL-2
  GI50: 29 µM (inactive) and 33.7 µM (inactive)
SK-OV-3
  GI50: 43.1 µM (inactive) and 24.8 µM (inactive)
SNB-19
  GI50: 87.1 µM (inactive)

## CN(C)c1ccc(/C=N/Nc2nc3ccccc3c(=O)n2-c2ccccc2)cc1
786-0
  GI50: 23.7 µM (inactive)
A498
  GI50: 63.2 µM (inactive)
A549
  GI50: > 100 µM (inactive)
ACHN
  GI50: 67.3 µM (inactive)
CAKI-1
  GI50: > 100 µM (inactive)
CCRF-CEM
  GI50: > 100 µM (inactive)
COLO 205
  GI50: > 100 µM (inactive)
DU-145
  GI50: > 100 µM (inactive)
HCC 2998
  GI50: > 100 µM (inactive)
HCT-116
  GI50: 51.5 µM (inactive)
HCT-15
  GI50: > 100 µM
HL-60
  GI50: > 100 µM (inactive)
HOP-62
  GI50: 33.3 µM (inactive)
HOP-92
  GI50: 31 µM (inactive)
HT-29
  GI50: > 100 µM (inactive)
IGROV-1
  GI50: > 100 µM (inactive)
K562
  GI50: > 100 µM (inactive)
KM12
  GI50: > 100 µM (inactive)
LOX IMVI
  GI50: > 100 µM (inactive)
M14
  GI50: 78 µM (inactive)
MCF7
  GI50: > 100 µM (inactive)
MDA-MB-231
  GI50: 63 µM (inactive)
MDA-MB-435
  GI50: > 100 µM (inactive)
MDA-N
  GI50: 74.3 µM (inactive)
MOLT-4
  GI50: > 100 µM (inactive)
Malme-3M
  GI50: 43.1 µM (inactive)
NCI-H226
  GI50: > 100 µM (inactive)
NCI-H23
  GI50: > 100 µM (inactive)
NCI-H460
  GI50: > 100 µM (inactive)
NCI-H522
  GI50: 44.5 µM (inactive)
NCI/ADR-RES
  GI50: 63.1 µM (inactive)
OVCAR-3
  GI50: 27 µM (inactive)
OVCAR-4
  GI50: 15.9 µM (inactive)
OVCAR-5
  GI50: > 100 µM (inactive)
OVCAR-8
  GI50: 46.9 µM (inactive)
PC-3
  GI50: 55.1 µM (inactive)
RXF 393
  GI50: 50.8 µM (inactive)
SF-268
  GI50: 43.5 µM (inactive)
SF-295
  GI50: 93.1 µM (inactive)
SF-539
  GI50: 30.4 µM (inactive)
SK-MEL-28
  GI50: > 100 µM (inactive)
SK-MEL-5
  GI50: 56.9 µM (inactive)
SK-OV-3
  GI50: 72.3 µM (inactive)
SN12C
  GI50: > 100 µM (inactive)
SNB-19
  GI50: 34.9 µM (inactive)
SNB-75
  GI50: 5.75 µM (inactive)
SR
  GI50: > 100 µM (inactive)
SW-620
  GI50: > 100 µM (inactive)
T47D
  GI50: > 100 µM (inactive)
TK-10
  GI50: > 100 µM (inactive)
U-251
  GI50: 34 µM (inactive)
UACC-257
  GI50: > 100 µM (inactive)
UACC-62
  GI50: 28.6 µM (inactive)
UO-31
  GI50: > 100 µM (inactive)
